Test results taken from PubChem BioAssay (NCI).
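In this assay, cells in 96-well plates receive the compound at five concentrations for 48 hours. Endpoints are linearly interpolated between the surrounding concentrations. GI50 is the concentration that inhibits growth by half. The concentration for full growth arrest is given as TGI.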

Legend:
Assay in all cases: DTP human tumour cell line panel, 48 h
MDA-MB-231 breast = test system: MDA-MB-231 breast
DU-145 prostate = test system: DU-145 prostate
NCI-H23 lung = test system: NCI-H23 lung
786-0 renal = test system: 786-0 renal
LOX IMVI melanoma = test system: LOX IMVI melanoma
SF-268 CNS = test system: SF-268 CNS
RXF 393 renal = test system: RXF 393 renal
UACC-62 melanoma = test system: UACC-62 melanoma
UO-31 renal = test system: UO-31 renal
HOP-92 NSCLC = test system: HOP-92 NSCLC

| Compound | TGI (MDA-MB-231 breast) [µM] | TGI (DU-145 prostate) [µM] | TGI (NCI-H23 lung) [µM] | TGI (786-0 renal) [µM] | TGI (LOX IMVI melanoma) [µM] | TGI (SF-268 CNS) [µM] | TGI (RXF 393 renal) [µM] | TGI (UACC-62 melanoma) [µM] | TGI (UO-31 renal) [µM] | TGI (HOP-92 NSCLC) [µM] | GI50 (MDA-MB-231 breast) [µM] | GI50 (DU-145 prostate) [µM] | GI50 (NCI-H23 lung) [µM] | GI50 (LOX IMVI melanoma) [µM] | GI50 (SF-268 CNS) [µM] | GI50 (RXF 393 renal) [µM] | GI50 (UACC-62 melanoma) [µM] | GI50 (UO-31 renal) [µM] |
| --- | --- | --- | --- | --- | --- | --- | --- | --- | --- | --- | --- | --- | --- | --- | --- | --- | --- | --- |
| Cc1cccc(NC(=S)Nc2cccc(Cl)c2)n1 | > 100 | > 100 | > 100 | > 100 | > 100 | > 100 | > 100 | > 100 | > 100 |  |  |  |  |  |  |  |  |  |
| C(=Nc1ccc(-c2nc3ccccc3s2)cc1)c1cccs1 |  | > 100 | > 100 | > 100 | > 100 | > 100 | 85.3 | > 100 | > 100 | 90.7 |  |  |  |  |  |  |  |  |
| O=C1CC(c2cccc([N+](=O)[O-])c2)C2(C(=O)NC(=S)NC2=O)C(c2cccc([N+](=O)[O-])c2)C1 (configuration not stated) | 62.4 | > 100 | > 100 | > 100 | 34 | 43.4 |  | 60.6 | > 100 | > 100 |  |  |  |  |  |  |  |  |
| O=C(CCC(NC(=O)OCc1ccccc1)C(=O)OCc1ccccc1)Nc1cccc(OCc2ccccc2)c1 (configuration not stated) | 56.5 | 79.6 | 57.1 | 33.2 | 38.3 | 71 | 46.8 | > 100 |  | 75 |  |  |  |  |  |  |  |  |
| CCOC(=O)c1c(SC(=O)c2ccc(Cl)cc2)n(-c2ccccc2)c(=S)n(-c2ccccc2)c1=O | > 100 | > 100 | > 100 | > 100 | > 100 | > 100 | > 100 | > 100 |  | > 100 |  |  |  |  |  |  |  |  |
| O=Cc1c2c(cc3c1CC1(C3)Cc3cc4c(c(C=O)c3C1)CCC4)CCC2 | 70.1 |  | > 100 | > 100 | 51.1 |  | > 100 | 62.3 | 6.38 | 56.5 |  |  |  |  |  |  |  |  |
| Cc1noc(-c2ccc(C(=O)O)[nH]2)c1Br | > 100 | > 100 | > 100 | 91.9 |  | > 100 | > 100 | > 100 | > 100 | 84.3 |  |  |  |  |  |  |  |  |
| C[C@@H]([C@H]1CC[C@@]2(C)[C@@H]3CC[C@@H]4C(=CC3=CC[C@]12C)CC[C@H](N(C)C)C4(C)C)N(C)C | > 100 | > 100 | > 100 | > 100 | > 100 | > 100 | > 100 | > 100 |  | > 100 |  |  |  |  |  |  |  |  |
| CSCSCC(CO)NC(=O)/C=C\c1c(C)[nH]c(=O)[nH]c1=O (configuration not stated) |  |  | 120 |  | 107 | 112 | 249 | 197 | 126 | 10.1 |  |  |  |  |  |  |  |  |
| Cc1cc2ccccc2oc(=O)/c1=N\Nc1ccccc1 | 77.9 | > 100 | > 100 | 97 | > 100 |  | 88.4 | > 100 | > 100 | > 100 |  |  |  |  |  |  |  |  |
| Oc1c(NCn2nc(CCCCCCCCc3nn(CNc4ccc5ccccc5c4O)c(=S)o3)oc2=S)ccc2ccccc12 | > 100 | > 100 | > 100 | > 100 |  | > 100 | > 100 | > 100 | > 100 | > 100 |  |  |  |  |  |  |  |  |
| Clc1cc(Cl)nc(Nc2ccc3c(c2)CCC3)n1 | > 100 | > 100 | > 100 | > 100 | 91.1 | > 100 |  | > 100 | > 100 | > 100 |  |  |  |  |  |  |  |  |
| CC(C)(C)N=C1C(=O)C2(C)CCC1C2(C)C (configuration not stated) | > 100 | > 100 | > 100 | > 100 | > 100 | > 100 | > 100 | 34.8 | > 100 |  |  |  |  |  |  |  |  |  |
| COc1ccc(-c2nc(-c3cnccn3)n(C/C=C/c3ccccc3)n2)cc1 | > 100 | > 100 | > 100 | 46.5 | > 100 |  |  | > 100 | > 100 | 37 |  |  |  |  |  |  |  |  |
| COc1ccc(NCn2nc(CCCCCCCCc3nn(CNc4ccc(OC)cc4)c(=S)o3)oc2=S)cc1 | > 100 | > 100 | > 100 | > 100 |  | > 100 | > 100 | > 100 | > 100 | > 100 |  |  |  |  |  |  |  |  |
| COc1cc(/C=C2\N=C(c3ccccc3)N(c3cc4cc(Sc5ccccc5)ccc4[nH]3)C2=O)ccc1O |  | > 50 | > 50 | > 50 | > 50 |  | 27.4 | > 50 | > 50 | > 50 |  |  |  |  |  |  |  |  |
| CC(=O)c1c(-c2ccco2)c(C#N)c(=S)n(C2OC(CO)C(O)C(O)C2O)c1C (configuration not stated) | > 100 | > 100 | > 100 |  | > 100 | > 100 | > 100 | > 100 | > 100 |  |  |  |  |  |  |  |  |  |
| CN1COCN=C1NC#N |  |  |  |  | > 100 | > 100 |  | > 100 | > 100 |  |  |  |  |  |  |  |  |  |
| CCOC(=O)c1cnc2n(c1=O)[C@H]1CCCC[C@@H]1N2 | > 100 | > 100 | > 100 | > 100 | > 100 | > 100 |  | > 100 | > 100 | > 100 |  |  |  |  |  |  |  |  |
| COc1ccc(N=C(C)C(C)=Nc2ccc(OC)cc2)cc1 | > 100 | > 100 | > 100 | > 100 | > 100 | > 100 | > 100 |  | > 100 | > 100 |  |  |  |  |  |  |  |  |
| O=C(NCc1cn(Cc2cccc(Oc3ccccc3)c2)nn1)c1cccnc1NCc1ccc(Cl)cc1 | 6.14 | > 100 | > 100 |  | > 100 | > 100 | 7.81 | 6.92 | > 100 |  | 2.29 | 4 | 3.66 | 3.9 | 4.82 | 2.19 | 2.08 | 3 |
| C=C1C(=O)OC2C[C@@]3(C)CCCC(=C)C3CC12 (some centres not stated) |  |  | 26.9 |  | 2.59 | 28.2 | 10.5 | 18.1 | 17.1 | 14.6 |  |  |  |  |  |  |  |  |
